Source: patent US20040063580A1, “Bicyclic triazolone derivatives and a herbicides containing the same” (priority 2000, published 2004)
Values joined by “and” are separate entries in the source; they are usually repeats but may differ in a detail not shown here. Equal values may be shown once. Values belong to the compound of their own block, whether it stands above or below them.

Assays:
corn = assay: Post emergence test, phytotoxicity on the crop corn; type: in vivo; conditions: post emergence spray, evaluated two weeks after treatment
Experimental: (§1) Herbicidal Effects Against Weeds (Post Emergence)
(§2) After filling 300 g field soil in jiffypot™ having diameter of 10 cm, the soil was steam sterilized. Seeds of velvetleaf, redroot pigweed, tall morningglory and corn onto the surface of the soil were scattered, and then covered with the soil to a thickness of 0.5 cm for the weed, 1 cm for the crop. When the weed and the crop reached the designated growth stage, they were treated with the compound to be tested.
(§3) Preparation of the Test Solution and the Method of Treatment
(§4) The compound to be tested was dissolved in acetone which contain Tween 20™ and diluted with deionized water to prepare the test solution for 10 g/a and 1 g/a use. The test solution was sprayed on the pots in a device for spraying using spraygun.
(§5) Method of Indicating the Effect and Phytotoxicity
(§6) The effect of the compound tested on the weeds and phytotoxicity on the crops were evaluated two weeks after treatment with the compound as 6 grades from 0 to 5 shown in the Table 9 and 10.
The phytotoxicity was indicated by the following evaluation index.

velvetleaf = assay: Herbicidal effects against weeds (post emergence), velvetleaf; type: in vivo; conditions: post emergence spray, evaluated two weeks after treatment
Experimental: as §1, §2, §3, §4, §5, §6
(§7) In the Table 11 and 12, the herbicidal effects were indicated by the following evaluation index.

tall morningglory = assay: Herbicidal effects against weeds (post emergence), tall morningglory; type: in vivo; conditions: post emergence spray, evaluated two weeks after treatment
Experimental: as §1, §2, §3, §4, §5, §6, §7

redroot pigweed = assay: Herbicidal effects against weeds (post emergence), redroot pigweed; type: in vivo; conditions: post emergence spray, evaluated two weeks after treatment
Experimental: as §1, §2, §3, §4, §5, §6, §7

Structure (SMILES): CCS(=O)(=O)Nc1cc(-n2nc3ccc(Cl)cn3c2=O)c(F)cc1C#N [Compound No. A-3, 6-Chloro-2-(4-cyano-5-ethanesulfonylamino-2-fluorophenyl)-1,2,4-triazolo[4,3-a]pyridin-3(2H)-one]
- Evaluation index Corn (phytotoxicity) (corn; 1 g/a): 1 (small 0.1 to 12.5)
- Evaluation index Velvet leaf (velvetleaf; 1 g/a): 5 (maximum *all dead) 100)
- melting point: 220 to 222 °C
- Evaluation index Tall morning glory (tall morningglory; 1 g/a): 4 (maximum 87.6 to 99.9)

Structure (SMILES): C#CCOc1cc(-n2nc3ccc(Cl)cn3c2=O)c(F)cc1Cl [Compound No. A-25, 6-Chloro-2-(4-chloro-2-fluoro-5-propargyloxyphenyl)-1,2,4-triazolo[4,3-a]pyridin-3(2H)-one]
- Evaluation index Corn (phytotoxicity) (corn; 1 g/a): 0 (no effect 0)
- Evaluation index Corn (phytotoxicity) (corn; 10 g/a): 1 (small 0.1 to 12.5)
- Evaluation index Velvet leaf (velvetleaf; 1 g/a): 5 (maximum *all dead) 100)
- Evaluation index Velvet leaf (velvetleaf; 10 g/a): 5 (maximum *all dead) 100)
- melting point: 145 to 148 °C
- Evaluation index Tall morning glory (tall morningglory; 1 g/a): 5 (maximum *all dead) 100)
- Evaluation index Tall morning glory (tall morningglory; 10 g/a): 5 (maximum *all dead) 100)

Structure (SMILES): CCOC(=O)COc1cc(-n2nc3ccc(Cl)cn3c2=O)c(F)cc1Cl [A-27]
- Evaluation index Velvet leaf (velvetleaf; 10 g/a): 5 (maximum *all dead) 100)
- Evaluation index Tall morning glory (tall morningglory; 10 g/a): 5 (maximum *all dead) 100)

Structure (SMILES): C#CCOc1cc(-n2nc3n(c2=O)CCCN3)c(F)cc1Cl [Compound No. F-1, 5,6,7,8-Tetrahydro-2-(4-chloro-2-fluoro-5-propargyloxyphenyl)-[1,2,4]triazolo[4,3-a]pyrimidin-3(2H)-one]
- Evaluation index Corn (phytotoxicity) (corn; 1 g/a): 3 (big 25.1 to 50.0)
- Evaluation index Corn (phytotoxicity) (corn; 10 g/a): 3 (big 25.1 to 50.0)
- Evaluation index Velvet leaf (velvetleaf; 1 g/a): 4 (maximum 87.6 to 99.9)
- Evaluation index Velvet leaf (velvetleaf; 10 g/a): 5 (maximum *all dead) 100)
- melting point: 172 to 174 °C
- Evaluation index Redroot pigweed (redroot pigweed; 1 g/a): 5 (maximum *all dead) 100)
- Evaluation index Redroot pigweed (redroot pigweed; 10 g/a): 5 (maximum *all dead) 100)

Structure (SMILES): CCS(=O)(=O)Nc1cc(-n2nc3ccc(C)cn3c2=O)c(F)cc1C#N [A-50]
- Evaluation index Velvet leaf (velvetleaf; 10 g/a): 5 (maximum *all dead) 100)
- Evaluation index Tall morning glory (tall morningglory; 10 g/a): 5 (maximum *all dead) 100)

- melting point: 121 to 123 °C and 120 to 122 °C
Structure (SMILES): CCS(=O)(=O)Nc1cc(-n2nc3ccc(Cl)cn3c2=O)c(F)cc1Cl [Compound No. A-35, 6-Chloro-2-(4-chloro-5-ethanesulfonylamino-2-fluorophenyl)-1,2,4-triazolo[4,3-a]pyridin-3(2H)-one]
- Evaluation index Corn (phytotoxicity) (corn; 10 g/a): 1 (small 0.1 to 12.5)
- Evaluation index Velvet leaf (velvetleaf; 10 g/a): 5 (maximum *all dead) 100)
- Evaluation index Redroot pigweed (redroot pigweed; 10 g/a): 5 (maximum *all dead) 100)

Structure (SMILES): CCOC(=O)CSc1cc(-n2nc3ccc(Cl)cn3c2=O)c(F)cc1C#N [A-19]
- Evaluation index Velvet leaf (velvetleaf; 10 g/a): 5 (maximum *all dead) 100)
- Evaluation index Tall morning glory (tall morningglory; 10 g/a): 5 (maximum *all dead) 100)

Structure (SMILES): CCS(=O)(=O)N(C(C)=O)c1cc(-n2nc3ccc(Cl)cn3c2=O)c(F)cc1C#N [Compound No. A-6, 2-[5-(N-acetyl-N-ethanesulfonylamino)-4-cyano-2-fluorophenyl]-6-chloro-1,2,4-triazolo[4,3-a]pyridin-3(2H)-one]
- Evaluation index Corn (phytotoxicity) (corn; 10 g/a): 1 (small 0.1 to 12.5)
- Evaluation index Velvet leaf (velvetleaf; 10 g/a): 5 (maximum *all dead) 100)
- melting point: 220 to 222 °C
- Evaluation index Redroot pigweed (redroot pigweed; 10 g/a): 5 (maximum *all dead) 100)

Structure (SMILES): CCS(=O)(=O)Nc1cc(-n2nc3c(Cl)cccn3c2=O)c(F)cc1C#N [A-48]
- Evaluation index Velvet leaf (velvetleaf; 10 g/a): 5 (maximum *all dead) 100)
- Evaluation index Tall morning glory (tall morningglory; 10 g/a): 5 (maximum *all dead) 100)

Structure (SMILES): Cc1cc2c(-n3nc4ccc(Cl)cn4c3=O)c(F)cc(Cl)c2o1 [A-62, 6-Chloro-2-(7-chloro-5-fluoro-2-methylbenzofuran-4-yl)-1,2,4-triazolo[4,3-a]pyridin-3(2H)-one]
- Evaluation index Corn (phytotoxicity) (corn; 1 g/a): 1 (small 0.1 to 12.5)
- Evaluation index Corn (phytotoxicity) (corn; 10 g/a): 1 (small 0.1 to 12.5)
- Evaluation index Velvet leaf (velvetleaf; 1 g/a): 5 (maximum *all dead) 100)
- Evaluation index Velvet leaf (velvetleaf; 10 g/a): 5 (maximum *all dead) 100)
- melting point: 205 to 207 °C
- Evaluation index Redroot pigweed (redroot pigweed; 1 g/a): 5 (maximum *all dead) 100)
- Evaluation index Redroot pigweed (redroot pigweed; 10 g/a): 5 (maximum *all dead) 100)

Structure (SMILES): CCOC(=O)COC(=O)c1cc(-n2nc3ccc(Cl)cn3c2=O)c(F)cc1Cl [Compound No. A-34, Ethoxycarbonylmethyl 2-chloro-4-fluoro-5-(6-chloro-2,3-dihydro-3-oxo-1,2,4-triazolo[4,3-a]pyridin-2-yl)benzoate]
- Evaluation index Corn (phytotoxicity) (corn; 1 g/a): 1 (small 0.1 to 12.5)
- Evaluation index Velvet leaf (velvetleaf; 1 g/a): 4 (maximum 87.6 to 99.9)
- melting point: 62 to 65 °C
- Evaluation index Redroot pigweed (redroot pigweed; 1 g/a): 5 (maximum *all dead) 100)

Structure (SMILES): CCS(=O)(=O)Nc1cc(-n2nc3n(c2=O)CCS3)c(F)cc1C#N [Compound No. C-2, 5,6-Dihydro-2-(4-cyano-5-ethylsulfonylamino-2-fluorophenyl)thiazolo[2,3-c][1,2,4]triazol-3(2H)-one]
- Evaluation index Corn (phytotoxicity) (corn; 1 g/a): 0 (no effect 0)
- Evaluation index Corn (phytotoxicity) (corn; 10 g/a): 0 (no effect 0)
- Evaluation index Velvet leaf (velvetleaf; 1 g/a): 5 (maximum *all dead) 100)
- Evaluation index Velvet leaf (velvetleaf; 10 g/a): 5 (maximum *all dead) 100)
- Evaluation index Redroot pigweed (redroot pigweed; 1 g/a): 5 (maximum *all dead) 100)
- Evaluation index Redroot pigweed (redroot pigweed; 10 g/a): 5 (maximum *all dead) 100)

Structure (SMILES): CCS(=O)(=O)Nc1cc(-n2nc3n(c2=O)CCCS3)c(F)cc1C#N [Compound No. E-1, 5,6-Dihydro-2-(4-cyano-5-ethylsulfonylamino-2-fluorophenyl)-7H-[1,2,4]triazolo[3,4-b][1,3]thiazin-3(2H)-one]
- Evaluation index Corn (phytotoxicity) (corn; 1 g/a): 1 (small 0.1 to 12.5)
- Evaluation index Corn (phytotoxicity) (corn; 10 g/a): 1 (small 0.1 to 12.5)
- Evaluation index Velvet leaf (velvetleaf; 1 g/a): 5 (maximum *all dead) 100)
- Evaluation index Velvet leaf (velvetleaf; 10 g/a): 5 (maximum *all dead) 100)
- melting point: 193 to 195 °C
- Evaluation index Redroot pigweed (redroot pigweed; 1 g/a): 5 (maximum *all dead) 100)
- Evaluation index Redroot pigweed (redroot pigweed; 10 g/a): 5 (maximum *all dead) 100)
